Reference: patent US5866570A, “Treatment of vascular leakage and related syndrome such as septic shock by administration of metalloproteinase inhibitors” (Wisconsin Alumni Research Foundation, priority 1994, dated 1999)
pIC50: −log10 of the molar value. Converted amounts (≈) assume the structure as drawn.

Experiments:
[1] = target: T1, E. coli recombinant human 72 kD collagenase type IV (MMP-2), pAPMA activated (Homo sapiens, UniProt P08253); assay: gelatinase assay (3H-gelatin degradation), Example 9; assay type: biochemical; settings: 100 ng activated enzyme, 4 hrs preincubation with inhibitor at 37° C., 3H-gelatin substrate; read-out: IC50, inhibition of collagenase type IV gelatinase activity
T1 construct: made in house; host or cells: E. coli
T1 sequence (P08253 110-660): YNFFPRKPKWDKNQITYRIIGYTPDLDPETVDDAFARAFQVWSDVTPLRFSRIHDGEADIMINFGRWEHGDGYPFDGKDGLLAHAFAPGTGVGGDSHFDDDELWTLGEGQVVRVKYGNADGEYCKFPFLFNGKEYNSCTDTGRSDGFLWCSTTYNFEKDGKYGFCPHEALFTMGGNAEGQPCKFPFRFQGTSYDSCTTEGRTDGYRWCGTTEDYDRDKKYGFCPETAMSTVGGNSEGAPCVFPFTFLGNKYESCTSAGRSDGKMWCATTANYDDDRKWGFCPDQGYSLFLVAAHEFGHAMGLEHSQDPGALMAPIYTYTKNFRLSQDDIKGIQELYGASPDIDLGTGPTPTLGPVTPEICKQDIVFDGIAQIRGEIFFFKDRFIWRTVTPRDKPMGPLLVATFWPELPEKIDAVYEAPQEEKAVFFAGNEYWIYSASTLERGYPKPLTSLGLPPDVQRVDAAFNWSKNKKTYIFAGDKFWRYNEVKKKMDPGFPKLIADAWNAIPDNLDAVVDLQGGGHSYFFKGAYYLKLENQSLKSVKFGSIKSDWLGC
Excerpt: Type IV collagenases are highly efficient in digesting gelatin. Inhibition of the gelatinase activity of human recombinant collagenase type IV was used as an initial assay for testing the bis(dioxopiperazine)s. The recombinant 72 kD collagenase IV used in the gelatinase assays was made in E. coli from a cDNA insert obtained from Dr. William Stetler-Stevenson (NCI). The protein runs at 72 kD on SDS-PAGE, has gelatinolytic activity in zymogram, is activated by pAPMA, is precipitated by a monoclonal anti-peptide antibody to the pro-region of the 72 kD enzyme, and is inhibited by TIMP-2. Rat tail ^3 H-collagen I (Dupont-NEN) is denatured to become gelatin by heating at 60° C. for 20 min. E. coli recombinant human 72 kD collagenase type IV is activated by incubation with 1 mM pAPMA for 1 hr. at 37° C. 100 ng of activated enzyme is added to each tube containing 50 mM Tris-HCl pH 7.5, 5 mM CaCl2 and 0.005% Brij-35 and pre-incubated with inhibitor or solvent control for 4 hrs. at 37° C. in a total of 25 μl. 10,000 cpm of ^3 H-gelatin substrate in 30 μl is added (final volume of 55 μl per sample) and the reaction mixture is incubated at 37° C. for 2 to 16 hrs. […] Enzyme activity is calculated from the radioactivity in the supernatant and activity of the compounds expressed as percent solvent control.

[2] = tested on: OVCAR-3 cells; assay: OVCAR-3 human ovarian cancer model in nude mice; assay type: in vivo; settings: 30 mg/kg i.p., one dose/day 5 consecutive days/week, from 24 hours before 20 million cells i.p.
Procedure: Dose and Schedule--Razoxane was suspended in sterile 1% CMC (carboxymethyl cellulose) 0.9% NaCl by sonication in a water bath. Mice received 30 mg/kg drug in 10 μl/g CMC per i.p. dose beginning 24 hours prior to cell implantation. Each mouse received one dose/day i.p. for 5 consecutive days with 2 days of recovery. Treatment continued until mouse death or sacrifice.
OVCAR-3 cells--were received from Dr. Tom Hamilton and are maintained by passage of ascites directly from the mouse. The ascites is harvested from the mouse by rinsing the peritoneal cavity with HBSS, treated briefly with Dispase to dissociate clumps, centrifuged, counted, resuspended in HBSS and 20 million cells injected i.p. per mouse.
Mice--HSD nu/nu female mice 6 weeks old (18-22 g) are weighed, tagged with a metal ear clip, and randomized for treatment or control groups. Mice are weighed daily and the dose of drug or vehicle is calculated.
Visible ascites appears around day 14 with small solid tumors at the sites of injections. The mice swell with hemorrhagic ascites prior to death. At necropsy mice contain massive invasive carcinomatosis obliterating most of the normal organs of the peritoneal cavity with significant metastasis to the lungs. A 25% increase in mean/median survival time with drug treatment is considered significant in this model.

[3] = tested on: V-79A fibroblasts; settings: tissue culture; cited from earlier work
[4] = tested on: S180 tumors; settings: cited from earlier work
[5] = tested on: BALB/C mice; assay: septic shock induced by galactosamine and endotoxin (E. coli 026:B6); assay type: in vivo
Procedure: Ten BALB/C mine were injected i.p. with 18 mg of D-galactosamine and 1 μg of endotoxin. Three units of heparin were given i.v. and 10 units heparin were given subcutaneously at 30 min to prevent intravascular coagulation.
Ten BALB/C mice were treated with razoxane (100 μg/g body weight i.p., dissolved in 1% carboxymethyl-cellulose in normal saline). The mice were then injected i.p. with 18 mg of D-galactosamine and 1 μg of endotoxin. Three units of heparin were given i.v. and 10 units heparin were given subcutaneously to each mice at 30 min.

[6] = at 25° C.; cited from earlier work
[7] = galactosamine + endotoxin1 (E. coli 026:B6)

Row | Compound | pIC50 [1] | difference in the survival time between treated and control mice [2] [%] | cytotoxic activity [3] | inhibition of S180 tumors ([4]; 5 doses at 30 mg/kg) [%] | calculated ratio of maximum tolerated dose to the dose required for 90% inhibition of S180 tumor growth ([4]; therapeutic index in vivo) | Survival/Total Ratio after 24 h [5, 7] | Survival/Total Ratio after 48 h [5, 7] | Survival/Total Ratio after 72 h [5, 7] | mice surviving more than 24 h ([5]; razoxane 100 μg/g i.p. before 18 mg D-galactosamine + 1 μg endotoxin i.p., heparin) | solubility in water [6] [µg/mL]
1 | CC1(C)O[C@H]2C[C@H](N3CC(=O)NC(=O)C3)[C@@H](N3CC(=O)NC(=O)C3)C[C@@H]2O1 (relative stereo) [Compound 80, (3aα, 5β, 6α, 7aβ)-4,4'-(hexahydro-2,2-dimethyl-1,3-benzodioxole-5,6-diyl)bis(2,6-piperazinedione)] | 5.10 | – | – | – | – | – | – | – | – | –
2 | CC(CN1CC(=O)NC(=O)C1)N1CC(=O)NC(=O)C1 (stereo not shown) [razoxane] | – | > 33 | has cytoxic activity | 93 | 9.8 | 2/10 | 2/10 | 2/10 | Two out of ten | 3000 (≈ 11.2 mM)
